Experimental data from patent publication US6635652B1, “Azaindolizinone derivatives and cerebral function improvers containing the same as the active ingredient” (Zenyaku Kogyo Kabushiki Kaisha, priority 1999, dated 2003).

Key:
[1] = system: amnesia of rats induced by scopolamine; assay: Effects on scopolamine-induced amnesia (passive avoidance task, oral administration); type: in vivo; conditions: Rattus norvegicus, po, 60 min before retention trial, scopolamine hydrobromide 2 mg/kg i.p., passive avoidance latency, male Strague Dawley rats, read-out: Inhibitory rate (%); for inhibition in vivo at 0.01 mg/kg: 0.01 mg/kg p.o.; for inhibition in vivo at 1 mg/kg: 1 mg/kg p.o.
Description: Male rats of the Strague Dawley strain at 8 weeks of age (260±2 g body weight) were used for evaluation through passive avoidance task. The apparatus of passive avoidance task comprises illuminated and dark chambers which are separated from each other by a wall with a door. Floors are constituted by grids made of stainless steel; only the grid in the dark chamber is furnished with wiring for electrification.
Effected on the first and second days of testing was preparative training; each rat was placed in the illuminated chamber and left for 3 minutes to habituate to the apparatus. On the third day of testing, the rats were individually placed in the illuminated chamber and after entering the dark chamber, the door was closed and the floor grid was electrified to deliver electric shock (100 V, 0.4 mA, a period of 0.8 sec). In order to induce amnesia, scopolamine hydrobromide (2 mg/kg) was intraperitoneally injected 20 minutes before the electric shock was delivered. Retention in memory on the electric shock was tested 24 hours later; more specifically, retention in passive avoidance trial was measured in terms of a time interval (latency) from placement of each rat in the illuminated chamber to its entry into the dark chamber. The latency over 300 seconds was recorded as 300 seconds. Respective test compounds were suspended in an aqueous solution of 1% carboxymethyl cellulose and orally administered at a dose of 0.01 or 1 mg/kg 60 minutes before the trial.
Antiamnesic effects of the test compounds were evaluated by inhibitory rate (%) which is calculated by the following formula: [formula]
wherein T stands for latency and SC stands for administration of scopolamine hydrobromide. Experimental results are shown in the following table in which, as to each of the test compounds, only the dose showing higher inhibitory rate was indicated.

rats of the ICR strain = assay: Toxicity test on rats in a single dose through oral administration; type: in vivo; conditions: oral administration of 2,000 mg/kg, suspended in 1% HPC, observation for 14 days
Experimental: Used in the test were rats of the ICR strain at 6 weeks of age (27.9±0.4 g body weight). They were allowed to freely take food and water; however, fasting was made for a period of 17 hours before administration of the test compounds and for a period of 4 hours after the administration. The respective test compounds were suspended in 1% of hydroxypropyl cellulose (HPC)and orally administered. Until 6 hours after the administration of the test compounds, observation was made frequently, and after that once a day and totally for 14 days.
Used as the test compounds were Compounds 8 and 10.

Compound	inhibition in vivo at 0.01 mg/kg [1] [%]	death after single oral dose (rats of the ICR strain)	melting point [°C]	inhibition in vivo at 1 mg/kg [1] [%]
CC1=CC=CN2C1=NC(=O)C2(Cc1ccccc1)Cc1ccccc1 [Compound 8, 3,3-Dibenzyl-8-methylimidazo[1,2-a]pyridin-2(3H)-one]	34.8	None of them induced death		
O=C1N=C2C=CC=CN2C1(Cc1ccccc1)Cc1ccccc1 [Compound 10, 3,3-Dibenzylimidazo[1,2-a]pyridin-2(3H)-one]	78.7	None of them induced death		
O=C1N=C2C(OCc3ccccc3)=CC=CN2C1(Cc1ccccc1)Cc1ccccc1 [Compound 6, 3,3-Dibenzyl-8-benzyloxyimidazo[1,2-a]pyridin-2(3H)-one]	58.8		240 to 241	
COC1=CC=CN2C1=NC(=O)C2(Cc1ccccc1)Cc1ccccc1 [Compound 2, 3,3-Dibenzyl-8-methoxyimidazo[1,2-a]pyridin-2(3H)-one]			274 to 275	53
O=C1N=C2C=CC=CN2C1(Cc1ccc(O)cc1)Cc1ccc(O)cc1 [Compound 22, 3,3-bis(4-Hydroxybenzyl)imidazo[1,2-a]pyridin-2(3H)-one]	37.4		276.5 to 277.5	
Cc1cccc(CC2(Cc3cccc(C)c3)C(=O)N=C3C(OCc4ccccc4)=CC=CN32)c1 [Compound 14, 8-Benzyloxy-3,3-bis(3-methylbenzyl)imidazo[1,2-a]pyridin-2(3H)-one]			233 to 235	56.7
O=C1N=C2C=CC=CN2C1(Cc1cccc(Cl)c1)Cc1cccc(Cl)c1 [Compound 18, 3,3-bis(3-Chlorobenzyl)imidazo[1,2-a]pyridin-2(3H)-one]			271 to 272	58.7
